According to ChEMBL document CHEMBL3991601, “The target landscape of clinical kinase drugs” (Science, 2017):
Activity calls are given as the source filed them. Rule as the data show it, for most assays here: actives have a measured Kd and inactives only a lower limit.

Experiments:
[1] = molecular target: T1, Ephrin type-B receptor 6 (Homo sapiens, UniProt O15197)
T1 sequence (O15197 whole entry): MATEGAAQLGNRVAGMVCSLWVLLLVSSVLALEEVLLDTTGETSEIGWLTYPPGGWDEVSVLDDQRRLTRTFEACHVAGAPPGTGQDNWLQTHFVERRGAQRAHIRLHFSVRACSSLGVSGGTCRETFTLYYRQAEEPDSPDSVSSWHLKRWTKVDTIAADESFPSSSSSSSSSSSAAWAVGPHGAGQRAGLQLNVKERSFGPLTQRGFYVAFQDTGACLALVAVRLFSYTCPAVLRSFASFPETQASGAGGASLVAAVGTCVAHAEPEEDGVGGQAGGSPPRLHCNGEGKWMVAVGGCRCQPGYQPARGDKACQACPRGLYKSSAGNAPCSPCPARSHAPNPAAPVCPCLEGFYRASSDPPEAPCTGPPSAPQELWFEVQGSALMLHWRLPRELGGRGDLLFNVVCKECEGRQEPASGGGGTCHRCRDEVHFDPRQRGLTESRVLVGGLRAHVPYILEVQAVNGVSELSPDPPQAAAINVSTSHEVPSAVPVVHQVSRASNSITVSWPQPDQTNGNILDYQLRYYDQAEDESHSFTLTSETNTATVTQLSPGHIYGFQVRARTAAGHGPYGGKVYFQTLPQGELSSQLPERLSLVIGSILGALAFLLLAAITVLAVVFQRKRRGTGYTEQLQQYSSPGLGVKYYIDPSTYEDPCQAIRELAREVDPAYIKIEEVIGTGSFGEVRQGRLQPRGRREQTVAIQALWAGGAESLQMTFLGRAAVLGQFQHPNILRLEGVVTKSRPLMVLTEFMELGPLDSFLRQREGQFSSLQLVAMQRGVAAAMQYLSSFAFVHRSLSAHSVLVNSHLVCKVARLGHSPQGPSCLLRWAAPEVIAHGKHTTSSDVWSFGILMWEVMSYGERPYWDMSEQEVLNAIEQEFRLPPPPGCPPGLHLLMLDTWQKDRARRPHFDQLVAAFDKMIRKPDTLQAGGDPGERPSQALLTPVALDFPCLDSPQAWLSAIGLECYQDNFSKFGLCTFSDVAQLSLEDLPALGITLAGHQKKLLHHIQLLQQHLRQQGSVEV

[2] = molecular target: Ephrin type-A receptor 2 (Homo sapiens, UniProt P29317)
[3] = molecular target: T2, Mitogen-activated protein kinase kinase kinase kinase 3 (Homo sapiens, UniProt Q8IVH8)
T2 sequence (Q8IVH8 whole entry): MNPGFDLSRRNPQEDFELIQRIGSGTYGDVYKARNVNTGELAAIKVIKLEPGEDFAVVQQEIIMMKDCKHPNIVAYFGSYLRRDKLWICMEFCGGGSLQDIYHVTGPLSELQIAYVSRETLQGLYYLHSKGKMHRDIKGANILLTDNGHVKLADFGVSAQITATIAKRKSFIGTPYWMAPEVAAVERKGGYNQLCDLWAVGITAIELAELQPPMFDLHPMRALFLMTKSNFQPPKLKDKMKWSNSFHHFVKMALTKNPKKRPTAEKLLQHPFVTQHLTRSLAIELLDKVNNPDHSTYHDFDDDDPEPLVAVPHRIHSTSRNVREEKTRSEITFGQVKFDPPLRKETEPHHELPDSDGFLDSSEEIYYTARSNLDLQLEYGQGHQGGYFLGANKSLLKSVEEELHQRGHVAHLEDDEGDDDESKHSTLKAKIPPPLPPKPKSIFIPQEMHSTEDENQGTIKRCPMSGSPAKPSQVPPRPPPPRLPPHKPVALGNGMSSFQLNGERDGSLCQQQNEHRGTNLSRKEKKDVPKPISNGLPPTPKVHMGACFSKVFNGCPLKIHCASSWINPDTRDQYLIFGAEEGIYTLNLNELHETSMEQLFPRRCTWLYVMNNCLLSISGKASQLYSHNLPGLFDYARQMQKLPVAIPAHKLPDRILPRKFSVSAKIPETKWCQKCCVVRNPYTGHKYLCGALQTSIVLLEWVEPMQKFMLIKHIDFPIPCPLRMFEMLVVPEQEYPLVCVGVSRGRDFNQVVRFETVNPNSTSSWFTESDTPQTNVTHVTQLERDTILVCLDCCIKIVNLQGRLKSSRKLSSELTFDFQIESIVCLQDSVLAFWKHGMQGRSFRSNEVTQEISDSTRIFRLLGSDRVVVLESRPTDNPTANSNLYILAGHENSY

[4] = molecular target: T3, Serine/threonine-protein kinase ULK3 (Homo sapiens, UniProt Q6PHR2)
T3 sequence (Q6PHR2 whole entry): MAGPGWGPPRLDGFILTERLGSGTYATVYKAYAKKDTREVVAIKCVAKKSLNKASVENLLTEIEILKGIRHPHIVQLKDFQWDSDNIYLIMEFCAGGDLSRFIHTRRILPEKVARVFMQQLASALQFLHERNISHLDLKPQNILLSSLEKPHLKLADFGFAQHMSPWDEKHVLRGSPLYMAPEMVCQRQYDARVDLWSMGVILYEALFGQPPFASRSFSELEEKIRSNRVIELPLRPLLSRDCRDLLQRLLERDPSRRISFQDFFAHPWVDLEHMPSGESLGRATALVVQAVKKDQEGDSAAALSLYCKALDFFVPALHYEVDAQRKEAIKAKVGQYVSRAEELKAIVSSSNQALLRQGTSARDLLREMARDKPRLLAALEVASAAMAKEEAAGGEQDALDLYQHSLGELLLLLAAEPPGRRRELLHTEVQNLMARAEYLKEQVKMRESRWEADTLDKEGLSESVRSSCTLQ

[5] = molecular target: Activin receptor type-2B (Homo sapiens, UniProt Q13705)
[6] = molecular target: Mitogen-activated protein kinase 1 (Homo sapiens, UniProt P28482)
[7] = molecular target: Rho-associated protein kinase 1 (Homo sapiens, UniProt Q13464)
[8] = molecular target: cAMP-dependent protein kinase catalytic subunit gamma (Homo sapiens, UniProt P22612)
[9] = molecular target: Actin-related protein 2 (Homo sapiens, UniProt P61160)
Also: in the data inactive means no Kd found up to 30 µM.

Rho-associated protein kinase 1, sequence (Q13464 whole entry): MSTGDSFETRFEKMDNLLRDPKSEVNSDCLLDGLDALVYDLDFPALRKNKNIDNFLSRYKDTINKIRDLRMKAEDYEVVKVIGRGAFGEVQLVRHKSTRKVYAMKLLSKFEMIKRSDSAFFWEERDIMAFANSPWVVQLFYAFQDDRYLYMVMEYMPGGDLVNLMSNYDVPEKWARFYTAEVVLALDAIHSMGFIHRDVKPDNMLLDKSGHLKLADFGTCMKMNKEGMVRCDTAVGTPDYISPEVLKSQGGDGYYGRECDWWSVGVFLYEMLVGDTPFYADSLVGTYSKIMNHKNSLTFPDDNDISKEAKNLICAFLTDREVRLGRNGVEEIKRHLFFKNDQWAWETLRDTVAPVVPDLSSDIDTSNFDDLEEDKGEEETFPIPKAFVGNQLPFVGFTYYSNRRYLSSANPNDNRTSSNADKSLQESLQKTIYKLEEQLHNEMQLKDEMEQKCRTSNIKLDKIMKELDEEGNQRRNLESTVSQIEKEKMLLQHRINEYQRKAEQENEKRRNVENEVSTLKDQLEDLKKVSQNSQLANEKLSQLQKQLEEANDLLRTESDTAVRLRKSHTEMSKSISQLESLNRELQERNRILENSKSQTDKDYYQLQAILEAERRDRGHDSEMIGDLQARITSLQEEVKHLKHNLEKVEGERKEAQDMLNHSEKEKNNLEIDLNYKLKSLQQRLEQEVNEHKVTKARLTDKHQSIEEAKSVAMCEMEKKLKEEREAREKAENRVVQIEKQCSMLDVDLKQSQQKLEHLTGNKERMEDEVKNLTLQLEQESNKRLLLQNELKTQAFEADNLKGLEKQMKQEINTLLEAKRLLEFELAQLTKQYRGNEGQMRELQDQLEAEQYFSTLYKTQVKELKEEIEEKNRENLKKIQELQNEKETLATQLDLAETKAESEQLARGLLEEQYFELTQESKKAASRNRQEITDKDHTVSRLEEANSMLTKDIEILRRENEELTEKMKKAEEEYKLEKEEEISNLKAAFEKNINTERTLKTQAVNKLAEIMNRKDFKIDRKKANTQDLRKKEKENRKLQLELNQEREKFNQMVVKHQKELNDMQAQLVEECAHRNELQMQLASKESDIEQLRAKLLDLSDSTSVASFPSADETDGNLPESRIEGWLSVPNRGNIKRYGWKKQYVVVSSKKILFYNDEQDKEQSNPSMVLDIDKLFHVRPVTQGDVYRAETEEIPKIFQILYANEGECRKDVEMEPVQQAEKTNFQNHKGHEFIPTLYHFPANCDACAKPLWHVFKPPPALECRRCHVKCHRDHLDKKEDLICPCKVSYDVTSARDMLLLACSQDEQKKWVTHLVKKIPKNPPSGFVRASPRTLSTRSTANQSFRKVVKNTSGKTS
cAMP-dependent protein kinase catalytic subunit gamma, sequence (P22612 whole entry): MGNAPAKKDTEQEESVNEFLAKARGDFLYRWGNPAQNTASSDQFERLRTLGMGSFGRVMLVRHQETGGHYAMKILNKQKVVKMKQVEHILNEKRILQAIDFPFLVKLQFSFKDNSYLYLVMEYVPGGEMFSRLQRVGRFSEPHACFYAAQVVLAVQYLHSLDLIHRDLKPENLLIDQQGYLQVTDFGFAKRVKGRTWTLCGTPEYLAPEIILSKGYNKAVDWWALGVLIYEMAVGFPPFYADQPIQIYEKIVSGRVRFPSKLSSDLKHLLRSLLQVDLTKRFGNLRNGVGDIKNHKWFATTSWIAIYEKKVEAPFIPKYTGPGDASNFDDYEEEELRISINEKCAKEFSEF
Activin receptor type-2B, sequence (Q13705 whole entry): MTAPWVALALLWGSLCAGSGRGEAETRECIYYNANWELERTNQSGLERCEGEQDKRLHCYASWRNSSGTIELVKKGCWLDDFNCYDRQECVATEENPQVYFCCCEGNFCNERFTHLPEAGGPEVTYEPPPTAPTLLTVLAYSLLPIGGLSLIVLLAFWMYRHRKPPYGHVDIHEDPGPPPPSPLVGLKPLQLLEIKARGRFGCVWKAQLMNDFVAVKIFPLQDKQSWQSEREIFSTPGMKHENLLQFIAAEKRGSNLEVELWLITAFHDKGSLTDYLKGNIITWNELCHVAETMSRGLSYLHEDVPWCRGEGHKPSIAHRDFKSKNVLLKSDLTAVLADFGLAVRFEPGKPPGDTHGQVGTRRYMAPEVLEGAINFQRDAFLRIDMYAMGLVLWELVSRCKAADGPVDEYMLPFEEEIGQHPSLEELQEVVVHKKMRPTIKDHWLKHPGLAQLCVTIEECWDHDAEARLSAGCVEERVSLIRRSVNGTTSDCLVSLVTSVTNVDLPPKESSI
Mitogen-activated protein kinase 1, sequence (P28482 whole entry): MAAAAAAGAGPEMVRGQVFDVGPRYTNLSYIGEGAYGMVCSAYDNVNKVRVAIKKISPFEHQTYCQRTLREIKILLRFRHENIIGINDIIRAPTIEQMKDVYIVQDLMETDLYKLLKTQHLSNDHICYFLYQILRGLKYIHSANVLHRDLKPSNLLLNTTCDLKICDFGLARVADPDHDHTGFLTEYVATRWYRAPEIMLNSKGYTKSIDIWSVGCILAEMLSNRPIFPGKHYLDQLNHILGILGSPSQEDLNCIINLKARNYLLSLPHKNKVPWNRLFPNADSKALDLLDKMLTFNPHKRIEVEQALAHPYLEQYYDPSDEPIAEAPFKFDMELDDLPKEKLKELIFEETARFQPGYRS
Ephrin type-A receptor 2, sequence (P29317 whole entry): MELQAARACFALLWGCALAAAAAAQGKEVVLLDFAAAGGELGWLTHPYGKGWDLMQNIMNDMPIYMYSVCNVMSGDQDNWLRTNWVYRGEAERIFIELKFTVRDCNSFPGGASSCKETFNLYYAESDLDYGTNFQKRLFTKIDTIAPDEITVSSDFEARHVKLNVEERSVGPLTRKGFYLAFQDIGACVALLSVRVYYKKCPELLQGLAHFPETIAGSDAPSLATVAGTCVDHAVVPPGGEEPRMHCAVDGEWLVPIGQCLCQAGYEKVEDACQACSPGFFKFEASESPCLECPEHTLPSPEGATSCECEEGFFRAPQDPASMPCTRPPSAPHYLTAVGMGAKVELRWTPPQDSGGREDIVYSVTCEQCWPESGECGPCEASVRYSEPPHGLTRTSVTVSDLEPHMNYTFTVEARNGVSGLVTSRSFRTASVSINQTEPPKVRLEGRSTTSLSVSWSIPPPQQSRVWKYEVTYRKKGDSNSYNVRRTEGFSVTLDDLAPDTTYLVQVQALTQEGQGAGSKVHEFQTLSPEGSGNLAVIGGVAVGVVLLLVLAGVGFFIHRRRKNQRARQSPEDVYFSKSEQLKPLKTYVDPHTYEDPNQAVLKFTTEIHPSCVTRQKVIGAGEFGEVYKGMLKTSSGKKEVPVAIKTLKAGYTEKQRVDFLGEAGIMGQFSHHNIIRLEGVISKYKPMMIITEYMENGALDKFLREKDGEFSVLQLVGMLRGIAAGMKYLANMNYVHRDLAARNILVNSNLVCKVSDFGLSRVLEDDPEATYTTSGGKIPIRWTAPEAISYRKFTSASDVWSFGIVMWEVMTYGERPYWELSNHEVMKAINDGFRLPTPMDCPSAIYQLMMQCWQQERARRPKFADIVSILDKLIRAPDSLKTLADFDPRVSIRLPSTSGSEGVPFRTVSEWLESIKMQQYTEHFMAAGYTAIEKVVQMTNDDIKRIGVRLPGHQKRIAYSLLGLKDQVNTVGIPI

Structure (SMILES) | Kd [1] | Kd [2] | Kd [3] | Kd [4] | Kd [5] | Kd [6] | Kd [7] | Kd [8] | Kd [9]
CO[C@H]1C[C@@H]2CC[C@@H](C)[C@@](O)(O2)C(=O)C(=O)N2CCCC[C@H]2C(=O)O[C@H]([C@H](C)C[C@@H]2CC[C@@H](OCCO)[C@H](OC)C2)CC(=O)[C@H](C)/C=C(\C)[C@@H](O)[C@@H](OC)C(=O)[C@H](C)C[C@H](C)/C=C/C=C/C=C/1C [EVEROLIMUS] | > 30 µM (inactive) | > 30 µM (inactive) | > 30 µM (inactive) | > 30 µM (inactive) | > 30 µM (inactive) | > 30 µM (inactive) | > 30 µM (inactive) | > 30 µM (inactive) | > 30 µM (inactive)
O=C1NC(=O)/C(=C/c2ccc3nccc(-c4ccncc4)c3c2)S1 [GSK-1059615] | > 30 µM (inactive) | > 30 µM (inactive) | > 30 µM (inactive) | > 30 µM (inactive) | > 30 µM (inactive) | > 30 µM (inactive) | > 30 µM (inactive) | > 30 µM (inactive) | > 30 µM (inactive)
CC[C@H](Nc1ncnc2[nH]cnc12)c1nc2cccc(F)c2c(=O)n1-c1ccccc1 [IDELALISIB] | > 30 µM (inactive) | > 30 µM (inactive) | > 30 µM (inactive) | > 30 µM (inactive) | > 30 µM (inactive) | > 30 µM (inactive) | > 30 µM (inactive) | > 30 µM (inactive) | > 30 µM (inactive)
Cn1cc(-c2ccc3nnc(C(F)(F)c4ccc5ncccc5c4)n3n2)cn1 [JNJ-38877605] | > 30 µM (inactive) | > 30 µM (inactive) | > 30 µM (inactive) | > 30 µM (inactive) | > 30 µM (inactive) | > 30 µM (inactive) | > 30 µM (inactive) | > 30 µM (inactive) | > 30 µM (inactive)
COC(=O)[C@@]1(O)C[C@H]2O[C@]1(C)n1c3ccccc3c3c4c(c5c6ccccc6n2c5c31)C(=O)NC4 [K-252A] | > 30 µM (inactive) | > 30 µM (inactive) | 2.37 µM (active) | 0.107 µM (active) | > 30 µM (inactive) | > 30 µM (inactive) | > 30 µM (inactive) | > 30 µM (inactive) | > 30 µM (inactive)
Cc1ccc(-n2nc(C(C)(C)C)cc2NC(=O)NCc2cc(F)ccc2Oc2ccc3c(cnn3CCO)c2)cc1 [PEXMETINIB] | > 30 µM (inactive) | 2.56 µM (active) | > 30 µM (inactive) | > 30 µM (inactive) | > 30 µM (inactive) | > 30 µM (inactive) | > 30 µM (inactive) | > 30 µM (inactive) | > 30 µM (inactive)
C[C@@H](c1ccc2nccn2c1)n1nnc2ncc(-c3cnn(C)c3)nc21 [SAVOLITINIB] | > 30 µM (inactive) | > 30 µM (inactive) | > 30 µM (inactive) | > 30 µM (inactive) | > 30 µM (inactive) | > 30 µM (inactive) | > 30 µM (inactive) | > 30 µM (inactive) | > 30 µM (inactive)

The next lines start with the values.

Kd [1] | Kd [2] | Kd [3] | Kd [4] | Kd [5] | Kd [6] | Kd [7] | Kd [8] | Kd [9] | Structure (SMILES)
> 30 µM (inactive) | > 30 µM (inactive) | > 30 µM (inactive) | > 30 µM (inactive) | > 30 µM (inactive) | > 30 µM (inactive) | > 30 µM (inactive) | > 30 µM (inactive) | > 30 µM (inactive) | Cc1cc2c(F)c(Oc3ncnn4cc(OC[C@@H](C)OC(=O)[C@H](C)N)c(C)c34)ccc2[nH]1 [BRIVANIB ALANINATE]
> 30 µM (inactive) | > 30 µM (inactive) | > 30 µM (inactive) | > 30 µM (inactive) | > 30 µM (inactive) | > 30 µM (inactive) | > 30 µM (inactive) | > 30 µM (inactive) | > 30 µM (inactive) | COC(=O)N[C@@H](C)CNc1nccc(-c2cn(C(C)C)nc2-c2cc(Cl)cc(NS(C)(=O)=O)c2F)n1 [ENCORAFENIB]
> 30 µM (inactive) | > 30 µM (inactive) | > 30 µM (inactive) | > 30 µM (inactive) | > 30 µM (inactive) | > 30 µM (inactive) | > 30 µM (inactive) | 49.3 µM (active) | > 30 µM (inactive) | Cc1c(F)cc(C(=O)NC2CC2)cc1-c1ccc(C(=O)NCC(C)(C)C)cn1 [LOSMAPIMOD]
> 30 µM (inactive) | > 30 µM (inactive) | > 30 µM (inactive) | > 30 µM (inactive) | > 30 µM (inactive) | > 30 µM (inactive) | > 30 µM (inactive) | > 30 µM (inactive) | > 30 µM (inactive) | Cn1cc(-c2ccc(F)c(C(F)(F)F)c2)nc1C1CCN(c2ncnc3[nH]ncc23)CC1 [LY-2584702]
> 30 µM (inactive) | 0.832 µM (active) | > 30 µM (inactive) | > 30 µM (inactive) | > 30 µM (inactive) | > 30 µM (inactive) | > 30 µM (inactive) | > 30 µM (inactive) | > 30 µM (inactive) | CNC(=O)c1cc(Oc2ccc(NC(=O)Nc3ccc(Cl)c(C(F)(F)F)c3)c(F)c2)ccn1 [REGORAFENIB]
> 30 µM (inactive) | > 30 µM (inactive) | > 30 µM (inactive) | > 30 µM (inactive) | > 30 µM (inactive) | > 30 µM (inactive) | > 30 µM (inactive) | > 30 µM (inactive) | > 30 µM (inactive) | CN(C)C(=O)c1cc2cnc(Nc3ccc(N4CCNCC4)cn3)nc2n1C1CCCC1 [RIBOCICLIB]
> 30 µM (inactive) | > 30 µM (inactive) | > 30 µM (inactive) | > 30 µM (inactive) | > 30 µM (inactive) | > 30 µM (inactive) | > 30 µM (inactive) | > 30 µM (inactive) | > 30 µM (inactive) | COc1cc(OC)c(/C=C/S(=O)(=O)Cc2ccc(OC)c(NCC(=O)O)c2)c(OC)c1 [RIGOSERTIB]
> 30 µM (inactive) | 8.2 µM | > 30 µM (inactive) | > 30 µM (inactive) | > 30 µM (inactive) | > 30 µM (inactive) | > 30 µM (inactive) | > 30 µM (inactive) | > 30 µM (inactive) | CNC(=O)CN1CCC(Oc2cc3c(Nc4cccc(Cl)c4F)ncnc3cc2OC)CC1 [SAPITINIB]
